# Patent US7615359B2, “Copolymer 1 related polypeptides for use as molecular weight markers and for therapeutic use” (Yeda Research and Development Co., Ltd., priority 1998, dated 2009)
# B1: AKKYAKKEKAYAKAKKAEAKAAKKAKAEAKKYAKAAKAEKKEYAAAEAKYKAEAAKAAAKEAAYEA (peptide)
# chain: AKKYAKKEKAYAKAKKAEAKAAKKAKAEAKKYAKAAKAEKKEYAAAEAKYKAEAAKAAAKEAAYEA
# B2: AKKYAKKEKAYAKKAEKAAKKAEAKAYKAAEAKKKAKAEAKKYAKAAKAEKKEYAAAEAKYKAEAAKAAAKEAAYEA (peptide)
# chain: AKKYAKKEKAYAKKAEKAAKKAEAKAYKAAEAKKKAKAEAKKYAKAAKAEKKEYAAAEAKYKAEAAKAAAKEAAYEA
# B3: AKKYAKKEKAYAKKAEKAAKKAEAKAYKAAEAKKKAKAEAKKYAKAAKAEKKEYAAAEAKYKAEAAKKAYKAEAAKAAAKEAAYEA (peptide)
# chain: AKKYAKKEKAYAKKAEKAAKKAEAKAYKAAEAKKKAKAEAKKYAKAAKAEKKEYAAAEAKYKAEAAKKAYKAEAAKAAAKEAAYEA
# B4: AKKYAKKAEKAYAKKAKAAKEKKAYAKKEAKAYKAAEAKKKAKAEAKKYAKEAAKAKKEAYKAEAKKYAKAAKAEKKEYAAAEAKKAEAAKAYKAEAAKAAAKEAAYEA (peptide)
# chain: AKKYAKKAEKAYAKKAKAAKEKKAYAKKEAKAYKAAEAKKKAKAEAKKYAKEAAKAKKEAYKAEAKKYAKAAKAEKKEYAAAEAKKAEAAKAYKAEAAKAAAKEAAYEA
# notes: reversed-phase fraction 2 designated TV-109
# Columns and labels:
# [1] = system: experimental allergic encephalomyelitis (EAE) in (SJL/JxBALB/c)FI mice; assay: Blocking of experimental allergic encephalomyelitis (EAE) by injection with complete adjuvant; assay type: in vivo, mouse; conditions: for Incidence of EAE: antigen included in the encephalitogenic inoculum, animals with EAE/animals; for % Blocking: blocking of EAE vs control inoculum; for Mean Score: disease score 0 (healthy) to 5 (dead); for Mean Onset: animals not protected, onset = day of disease score of at least 1
# Text: Blocking of Experimental Allergic Encephalomyelitis—To test the physiological activity of TV-markers, protection from experimental allergic encephalomyelitis (EAE) was investigated in mice. Injection of Copolymer 1 in complete Freund's adjuvant together with the encephalitogen can block EAE essentially as described in Aharoni et al., 17 EUR. J. IMMUNOL. 23 (1993). Other researchers have observed that the therapeutic effect of Copolymer 1 in multiple sclerosis patients is also associated with the induction of TH2 cells. Lahat et al., 244 J. NEUROL. 129 (1997). In this example, EAE is blocked by different polypeptides of the present invention.
# Pertussis toxin (0.25 ml, 250 ng, Sigma) is injected intravenously, immediately after and 48 hr later. […] 2156 (1979).
# EAE blocking by injection with complete adjuvant—Each antigen being tested was included in the encephalitogenic inoculum. […] Also shown is the mean onset of EAE in animals which were not protected. Disease intensity is scored daily in mice with a score of zero (0=healthy) to five (5=dead).
# [2] = system: BALB/c-Ts-Cop-1 T cell line; assay: Proliferation of Cop 1 specific T cell line (3H-thymidine uptake); conditions: 10 µg antigen; relative to Cop 1
# [3] = system: SC-103 human Cop 1 specific T cell clone; assay: as above; conditions: 10 µg antigen; relative to Cop 1
# [4] = system: anti-Cop-1 (3-3-9) monoclonal antibody; assay: RIA: binding of anti-Cop 1 monoclonal antibody to coated antigen; conditions: relative to Cop 1 reference standard; 2 µg/ml coating antigen
# [5] = system: anti-Cop-1 (3-1-45) monoclonal antibody; assay: as above; conditions: relative to Cop 1 reference standard; 2 µg/ml coating antigen
# L-22-1 T cell clone = assay: Proliferation of Cop 1 specific T cell line (3H-thymidine uptake); conditions: 10 µg antigen; relative to Cop 1
# [6] = system: anti-Cop-1 (5-7-2) monoclonal antibody; assay: RIA: binding of anti-Cop 1 monoclonal antibody to coated antigen; conditions: relative to Cop 1 reference standard; 2 µg/ml coating antigen
molecule,measurement,setting,value
AKKYAKKAKAEKAKKAYKAAEAKKAAKYEKAAAEKAAAKEAAYEA [TV-45],Incidence of EAE,[1],0/10
same,% Blocking,[1],100%
AKKYAKKEKAAKKAYKKEAKAKAAEAAAKEAAYEA [TV-35],"3H-Thymidine incorporation, % Cop1, BALB/c-Ts-Cop-1",[2],28%
same,"3H-Thymidine incorporation, % Cop1, SC-103",[3],0%
same,"Binding of mAb anti-Cop-1 (3-3-9), % Cop1 binding",[4],0%
same,"Binding of mAb anti-Cop-1 (3-1-45), % Cop1 binding",[5],0%
same,"3H-Thymidine incorporation, % Cop1, L-22-1",L-22-1 T cell clone,0%
same,"Binding of mAb anti-Cop-1 (5-7-2), % Cop1 binding",[6],1%
AKKYAKKEKAYAKKAEKAAKKAEAKAYKAAEAKKKAEAKYKAEAAKAAAKEAAYEA [TV-56],"3H-Thymidine incorporation, % Cop1, BALB/c-Ts-Cop-1",[2],59%
same,"3H-Thymidine incorporation, % Cop1, SC-103",[3],0%
same,"Binding of mAb anti-Cop-1 (3-3-9), % Cop1 binding",[4],2%
same,"Binding of mAb anti-Cop-1 (3-1-45), % Cop1 binding",[5],6%
same,"3H-Thymidine incorporation, % Cop1, L-22-1",L-22-1 T cell clone,0%
same,"Binding of mAb anti-Cop-1 (5-7-2), % Cop1 binding",[6],91%
"glatiramer acetate [compound 03494, reference compound]",Incidence of EAE,[1],0/10
same,% Blocking,[1],100%
same,Mean Score,[1],0
"glatiramer acetate [compound 55296, reference compound]","3H-Thymidine incorporation, % Cop1, BALB/c-Ts-Cop-1",[2],110%
same,"3H-Thymidine incorporation, % Cop1, SC-103",[3],81%
same,"Binding of mAb anti-Cop-1 (3-3-9), % Cop1 binding",[4],91%
same,"Binding of mAb anti-Cop-1 (3-1-45), % Cop1 binding",[5],83%
same,"3H-Thymidine incorporation, % Cop1, L-22-1",L-22-1 T cell clone,106%
same,"Binding of mAb anti-Cop-1 (5-7-2), % Cop1 binding",[6],82%
"glatiramer acetate [compound 55396, reference compound]","3H-Thymidine incorporation, % Cop1, BALB/c-Ts-Cop-1",[2],105%
same,Incidence of EAE,[1],0/10
same,% Blocking,[1],100%
same,Mean Score,[1],0
same,"3H-Thymidine incorporation, % Cop1, SC-103",[3],80%
same,"Binding of mAb anti-Cop-1 (3-3-9), % Cop1 binding",[4],90%
same,"Binding of mAb anti-Cop-1 (3-1-45), % Cop1 binding",[5],85%
same,"3H-Thymidine incorporation, % Cop1, L-22-1",L-22-1 T cell clone,105%
same,"Binding of mAb anti-Cop-1 (5-7-2), % Cop1 binding",[6],86%
B1,Mean Onset,[1],11.7 days
same,Incidence of EAE,[1],6/10
same,% Blocking,[1],40%
B2,"3H-Thymidine incorporation, % Cop1, BALB/c-Ts-Cop-1",[2],52%
same,Mean Onset,[1],14.0 days
same,Incidence of EAE,[1],1/9
same,% Blocking,[1],89%
same,"3H-Thymidine incorporation, % Cop1, SC-103",[3],0%
same,"Binding of mAb anti-Cop-1 (3-3-9), % Cop1 binding",[4],6%
same,"Binding of mAb anti-Cop-1 (3-1-45), % Cop1 binding",[5],9%
same,"3H-Thymidine incorporation, % Cop1, L-22-1",L-22-1 T cell clone,1%
same,"Binding of mAb anti-Cop-1 (5-7-2), % Cop1 binding",[6],37%
B3,"3H-Thymidine incorporation, % Cop1, BALB/c-Ts-Cop-1",[2],44%
same,Mean Onset,[1],12.0 days
same,Incidence of EAE,[1],3/10
same,% Blocking,[1],70%
same,"3H-Thymidine incorporation, % Cop1, SC-103",[3],0%
same,"Binding of mAb anti-Cop-1 (3-3-9), % Cop1 binding",[4],2%
same,"Binding of mAb anti-Cop-1 (3-1-45), % Cop1 binding",[5],6%
same,"3H-Thymidine incorporation, % Cop1, L-22-1",L-22-1 T cell clone,1%
same,"Binding of mAb anti-Cop-1 (5-7-2), % Cop1 binding",[6],76%
B4,Incidence of EAE,[1],0/10
same,% Blocking,[1],100%
